Entries after “also recorded” stand apart in the source; their conditions may differ. Read-outs that look alike come from different tables or passages of the source.
What was measured:
[1] = logP measured by the shake-flask method; type: physicochemical
[2] = Lipid peroxidation inhibition, ferric thiocyanate (FTC) method; type: biochemical; details: inhibition of lipid peroxidation
Text: (§1) Because lipid peroxidation (LPO) is a common marker of damage induced by reactive oxygen species (ROS) (Gutteridge JMC, “Lipid-peroxidation and antioxidants as biomarkers of tissue-damage,” Clin Chem, 41: 1819-1828 (1995); Kaur and Geetha, “Screening methods for antioxidants—A review,” Mini-Rev Med Chem, 6: 305-312 (2006)), two assays were employed to measure capacity to inhibit LPO: the ferric thiocyanate (FTC) and the thiobarbituric acid reactive substances (TBARS) methods. With these assays, the autoxidation of linoleic acid (a lipid model) is measured in the absence and, then, presence of different concentration of antioxidants. […] During the oxidation process, peroxide is gradually decomposed to lower molecular-weight compounds such as malondialdehyde (MDA) that is measured by the TBARS method (Kikuzaki and Nakatani, J Food Sci, 58: 1407-1410 (1993)). […]
(§2) The TBARS assay is a widely adopted and sensitive method for measurement of lipid peroxidation (Callaway J K, Beart P M and Jarrott B. “A reliable procedure for comparison of antioxidants in rat brain homogenates.” J Pharmacol Toxicol Meth, 39: 155-162 (1998)). […] The MDA-TBA complex measured by the TBARs assay is a gauge of LOOH formation (Janero D R. “Malondialdehyde and thiobarbituric acid-reactivity as diagnostic indices of lipid peroxidation and peroxidative tissue injury.” Free Rad Biol Med, 9: 515-540 (1990)). […]

[3] = Lipid peroxidation inhibition, thiobarbituric acid reactive substances (TBARS) method; type: biochemical; details: inhibition of lipid peroxidation
Text: as §1, §2

[4] = tested on: Human retinal ganglial cells (RGC); experiment: Viability of retinal ganglial cells (RGC) incubated with glutamate; type: cell-based; details: for effect on RGC viability, compound alone: without glutamate; for RGC killed by glutamate in the presence of the compound: glutamate 5 mM plus compound (three concentrations)
Protocol: Human retinal ganglial cells (RGC) were incubated with glutamate (5 mM), the estrogen analogue 3,17-dihydroxyestra-1,3,5(10),9(11)-tetraene (ZYC1) or combination of glutamate and various concentrations of ZYC1.
RGC were treated with glutamate (5 mM) in the presence or absence of ZYC1.

[5] = 37° C.
Protocol: By way of example, conversion of Formula II by NAD(P)H as an endogenous reducing agent was tested. […] At incremental time points, 100 μl aliquots were removed into ice-cold centrifuge tubes, and 100 μl of glacial acetic acid was added. After immediate extraction with ethyl acetate, the organic layer was evaporated under nitrogen stream. […] For the control experiment, no reducing agent was used.
Liquid chromatography separation was done using a Supelco (Bellfonte, Pa.) 5 cm×2.1 mm i.d. Discovery HS C-18 reversed-phase column with 0.25 ml/min water:methanol:2-propanol:acetic acid:dichloromethane (53:35:5:5:2, v/v) as a mobile phase. The sample residues were dissolved in 40 μl of mobile phase, respectively, and 5 μl of the solution was injected for analysis. Mass spectra were recorded on a quadruple ion-trap instrument (LCQ®, ThermoFinnigan, San Jose, Calif.) using positive-ion atmospheric-pressure chemical ionization (APCI) as the method of ionization. MS/MS and MS^3 product-ion scans were obtained after collision-induced dissociation (CID) with helium as the target gas. […] As an internal standard, 1,3,5(10)-estratrien-17α-ethynyl-17β-ol was added before each sample extraction.

C[C@]12CC[C@H]3[C@@H](CCC4=CC(=O)C(C56CC7CC(CC(C7)C5)C6)=C[C@@]43O)[C@@H]1CC[C@@H]2O [2-(1-adamantyl)-10β,17β-dihydroxyestra-1,4-dien-3-one]
logP ([1]; n-octanol/water, shake-flask, read-out: logPexp): 3.26

C[C@]12CC[C@@H]3c4cc(C56CC7CC(CC(C7)C5)C6)c(O)cc4CC[C@H]3[C@@H]1CC[C@@H]2O [2-(1-adamantyl)-estra-1,3,5(10)-triene-3,17β-diol]
IC50 [2]: 1.5 ± 0.1 µM
IC50 [3]: 0.75 ± 0.11 µM
logP [1]: 6.51

C[C@]12CC[C@@H]3c4ccc(O)cc4C[C@@H](CCCCCCCCC[S+]([O-])CCCC(F)(F)C(F)(F)F)[C@H]3[C@@H]1CC[C@@H]2O (some centres unmarked) [IC1182,780, reference compound]
antagonism of ZYC1 protection of RGC ([4]; glutamate 5 mM, ZYC1 plus various concentrations of estrogen receptor antagonist): little antagonism

C[C@]12CC=C3c4ccc(O)cc4CC[C@H]3[C@@H]1CCC2O (some centres unmarked) [ZYC1, 3,17-dihydroxyestra-1,3,5(10),9(11)-tetraene]
effect on RGC viability, compound alone [4]: no effect
RGC killed by glutamate in the presence of the compound [4]: killed significantly fewer cells; also recorded: reduced the number of RGC killed by glutamate

C[C@]12CC[C@@H]3c4cc(C56CC7CC(CC(C7)C5)C6)c(O)cc4CC[C@H]3[C@@H]1CCC2=O [ZYC3, 2-(1-adamantyl)-3-hydroxyestra-1,3,5(10)-trien-17-one]
effect on RGC viability, compound alone [4]: no affect
RGC killed by glutamate in the presence of the compound [4]: killed significantly fewer cells
IC50 [2]: 5.3 ± 1.2 µM
IC50 [3]: 5.8 ± 1.3 µM

C[C@]12CC[C@H]3[C@@H](CCC4=CC(=O)C=C[C@@]43O)[C@@H]1CCC2=O [estrone quinol, 10β-hydroxyestra-1,4-diene-3,17-dione]
rate of conversion ([5]; 10-fold excess NADPH, 0.1 mM quinol, 0.1M sodium phosphate buffer pH 7.5): 6e-07 ± 4e-08 M/min
formation of estrone ([5]; incubation with NADH or NADPH, pH 7.5): clearly detectable

N[C@@H](CCC(=O)O)C(=O)O [glutamate, reference compound]
RGC killed by glutamate ([4]; glutamate 5 mM alone): about 70%

From US20070213310A1, “Prodrugs for Use as Ophthalmic Agents” (priority 2002, published 2007)
